Experimental data reported in patent EP4818168A1, “FUSED RING COMPOUND, PHARMACEUTICAL COMPOSITION THEREOF AND USE THEREOF” (priority 2023, dated 2025).
Like-named read-outs stand apart in the source and are kept apart here.

Legend:
AURKA = molecular target: T1, AURKA (Homo sapiens, UniProt O14965); format: cell-based
T1 construct: endogenous in cells; host or cells: Jurkat cells
T1 sequence (O14965 1-403): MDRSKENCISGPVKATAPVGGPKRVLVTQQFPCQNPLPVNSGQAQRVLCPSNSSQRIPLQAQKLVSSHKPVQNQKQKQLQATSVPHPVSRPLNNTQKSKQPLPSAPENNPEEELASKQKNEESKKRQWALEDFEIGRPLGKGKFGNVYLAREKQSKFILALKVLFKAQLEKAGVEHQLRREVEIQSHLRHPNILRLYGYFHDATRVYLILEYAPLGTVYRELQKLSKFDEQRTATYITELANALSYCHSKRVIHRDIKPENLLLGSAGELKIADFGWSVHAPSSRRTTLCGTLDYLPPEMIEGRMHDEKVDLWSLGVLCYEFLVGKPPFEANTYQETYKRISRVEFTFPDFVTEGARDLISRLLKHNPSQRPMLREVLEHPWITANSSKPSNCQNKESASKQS
In short: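 Jurkat cells seeded at 1×10^6 cells/500 µL and treated with compound; lysates run on SDS-PAGE, blotted to nitrocellulose and probed overnight at 4°C for AURKA. Chemiluminescent or fluorescent band intensity fitted to a curve to give DC50 for protein degradation.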

H82 cells = experiment: cells; format: cell-based; conditions: Homo sapiens
In short: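 H82 cells in RPMI1640 + 10% FBS exposed to compound (0.1% DMSO final) for 6 days at 37 °C, 5% CO2. Viability read by CellTiter-Glo ATP luminescence, normalised to DMSO and medium controls; IC50 from nonlinear regression of the dose–survival curve.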

[1] = 100 nM compound, Jurkat cells, 24 h, Table 2
[2] = 1 µM compound, Jurkat cells, 24 h, Table 2
[3] = NCI-H82, H82 cells, 4000 cells/well, CellTiter-Glo, read-out: IC50 in H82 Cells
[4] = NCI-H82, read-out: IC50 in H82 Cells

| SMILES | Percentage of AURKA Degradation Induced by 100 nM Compound in Jurkat Cells (AURKA; [1]) | Percentage of AURKA Degradation Induced by 1 µM Compound in Jurkat Cells (AURKA; [2]) | IC50 (H82 cells; [3]) [nM] | IC50 (H82 cells; [4]) [nM] | Percentage of AURKA Degradation Induced by 100 nM Compound in Jurkat Cells (AURKA) | Percentage of AURKA Degradation Induced by 1 µM Compound in Jurkat Cells (AURKA) |
| --- | --- | --- | --- | --- | --- | --- |
| Cc1c(N2CCC(CN3CCc4ccc(Nc5ncc6c(n5)-c5ccc(Cl)cc5C(c5c(F)cccc5F)=NC6)cc4C3)CC2)cccc1N1CCC(=O)NC1=O [Compound A178] | +++ (Degradation > 70%) | +++ (Degradation > 70%) | < 1000 |  |  |  |
| O=C1CCN(c2ccc(N3CCC4(CC3)CC(N3CCN(c5ccc(Nc6ncc7c(n6)-c6ccc(Cl)cc6C(c6nccs6)=NC7)cc5)CC3)CO4)nc2)C(=O)N1 (stereo not drawn) [Compound A345] | +++ (Degradation > 70%) | +++ (Degradation > 70%) | < 1000 |  |  |  |
| O=C1CCN(c2ccc(N3CCC(F)(CN4CC(=O)N(C56CC(Nc7ncc8c(n7)-c7ccc(Cl)cc7C(c7c(F)cccc7F)=NC8)(C5)C6)C(=O)C4)CC3)nc2)C(=O)N1 [Compound A294] | ++ (30% < Degradation ≤ 70%) | ++ (30% < Degradation ≤ 70%) | < 1000 |  |  |  |
| Cc1ccc2c(c1)C(c1c(F)cccc1F)=NCc1cnc(Nc3ccc(C(=O)NC4CC5(CCN(c6ccc(N7CCC(=O)NC7=O)cn6)CC5)C4)cc3)nc1-2 [Compound A118] | ++ (30% < Degradation ≤ 70%) | +++ (Degradation > 70%) | < 1000 |  |  |  |
| CN(C)Cc1ccc2c(c1)C(c1c(F)cccc1F)=NCc1cnc(Nc3ccc(C(=O)NC4CC5(CCN(c6ccc(N7CCC(=O)NC7=O)cn6)CC5)C4)cc3)nc1-2 [Compound A172] | ++ (30% < Degradation ≤ 70%) | +++ (Degradation > 70%) | < 1000 |  |  |  |
| O=C1CCN(c2ccc(N3CCN(CC#Cc4ccc(Nc5ncc6c(n5)-c5ccc(Cl)cc5C(c5c(F)cccc5F)=NC6)cc4)CC3)cc2)C(=O)N1 [Compound A124] | + (Degradation ≤ 30%) | + (Degradation ≤ 30%) | < 1000 |  |  |  |
| O=C1CCN(c2cccc(N3CCC(CN4CC(c5cccc(Nc6ncc7c(n6)-c6ccc(Cl)cc6C(c6c(F)cccc6F)=NC7)c5)C4)CC3)c2)C(=O)N1 [Compound A143] | +++ (Degradation > 70%) | +++ (Degradation > 70%) | < 1000 |  |  |  |
| O=C1CCN(c2ccc(N3CCOC4(CC(N5CCN(C67CC(Nc8ncc9c(n8)-c8ccc(Cl)cc8C(c8c(F)cccc8F)=NC9)(C6)C7)C(=O)C5)C4)C3)nc2)C(=O)N1 (single isomer, unassigned) [Compound A348] | +++ (Degradation > 70%) | ++ (30% < Degradation ≤ 70%) |  | < 1000 |  |  |
| COc1ccc2c(c1)C(c1c(F)cccc1F)=NCc1cnc(Nc3ccc(C(=O)NC4CC5(CCN(c6ccc(N7CCC(=O)NC7=O)cn6)CC5)C4)cc3)nc1-2 [Compound A122] | +++ (Degradation > 70%) | +++ (Degradation > 70%) | < 1000 |  |  |  |
| O=C1CCN(c2cccc(N3CCN(CCOc4cccc(Nc5ncc6c(n5)-c5ccc(Cl)cc5C(c5c(F)cccc5F)=NC6)c4)CC3)c2)C(=O)N1 [Compound A125] | ++ (30% < Degradation ≤ 70%) | +++ (Degradation > 70%) | < 1000 |  |  |  |
| O=C1CCN(c2ccc(N3CC(CN4CCN(C(=O)C56CC(Nc7ncc8c(n7)-c7ccc(Cl)cc7C(c7c(F)cccc7F)=NC8)(C5)C6)CC4)C3)nc2)C(=O)N1 [Compound A279] | +++ (Degradation > 70%) | +++ (Degradation > 70%) | < 1000 |  |  |  |
| O=C1CCN(c2ccc(N3CCC4(CC3)CC(N3CCN(c5ccc(Nc6ncc7c(n6)-c6ccc(Cl)cc6C(c6c(F)cccc6F)=NC7)cc5)CC3)CO4)nc2)C(=O)N1 (racemic) [Compound A340] | +++ (Degradation > 70%) | +++ (Degradation > 70%) |  | < 1000 |  |  |
| O=C1CCN(c2ccc(N3CCN(C4(C5CN(c6ccc(Nc7ncc8c(n7)-c7ccc(Cl)cc7C(c7c(F)cccc7F)=NC8)cc6)C5)CC4)CC3)nc2)C(=O)N1 [Compound A252] | +++ (Degradation > 70%) | +++ (Degradation > 70%) | < 1000 |  |  |  |
| Cc1cc(N2CCC3(CC2)CC(NC(=O)c2ccc(Nc4ncc5c(n4)-c4ccc(Cl)cc4C(c4c(F)cccc4F)=NC5)cc2)C3)ncc1N1CCC(=O)NC1=O [Compound A110] | ++ (30% < Degradation ≤ 70%) | ++ (30% < Degradation ≤ 70%) | < 1000 |  |  |  |
| O=C1CCN(c2ccc(N3CCC(N4CCN(c5ccc(Nc6ncc7c(n6)-c6ccc(Cl)cc6C(c6c(F)cccc6F)=NC7)cc5)C5(CC5)C4)CC3)nc2)C(=O)N1 [Compound A217] | + (Degradation ≤ 30%) | + (Degradation ≤ 30%) | < 1000 |  |  |  |
| CP(C)(=O)c1ccc2c(c1)C(c1c(F)cccc1F)=NCc1cnc(Nc3ccc(N4CC(CN5CCN(c6ccc(N7CCC(=O)NC7=O)cn6)CC5)C4)cc3)nc1-2 [Compound A269] | +++ (Degradation > 70%) | +++ (Degradation > 70%) | 1000 to 10000 |  |  |  |
| O=C1CCN(c2ccc(N3CCC4(CC3)CCN(C3CCN(c5ccc(Nc6ncc7c(n6)-c6ccc(Cl)cc6C(c6c(F)cccc6F)=NC7)cc5)CC3)CCO4)nc2)C(=O)N1 [Compound A355] | +++ (Degradation > 70%) | +++ (Degradation > 70%) |  | < 1000 |  |  |
| O=C1CCN(c2ccc(N3CCC(CN4CCN(C56CC(Nc7ncc8c(n7)-c7ccc(Cl)cc7C(c7c(F)cccc7F)=NC8)(C5)C6)C(=O)C4)CC3)nc2)C(=O)N1 [Compound A250] | +++ (Degradation > 70%) | +++ (Degradation > 70%) | < 1000 |  |  |  |
| CN(CCN1CCN(c2ccc(N3CCC(=O)NC3=O)cc2)CC1)C(=O)c1ccc(Nc2ncc3c(n2)-c2ccc(C4CC4)cc2C(c2c(F)cccc2F)=NC3)cc1 [Compound A136] | +++ (Degradation > 70%) | +++ (Degradation > 70%) | < 1000 |  |  |  |
| O=C1CCN(c2ccc(N3CC(N4CCN(Cc5ccc(Nc6ncc7c(n6)-c6ccc(Cl)cc6C(c6c(F)cccc6F)=NC7)cc5)CC4=O)C3)nc2)C(=O)N1 [Compound A276] |  |  |  | < 1000 | ++ (key: +: Degradation ≤ 30%; ++: 30% < Degradation ≤ 70%; +++: Degradation > 70%) | ++ (key: +: Degradation ≤ 30%; ++: 30% < Degradation ≤ 70%; +++: Degradation > 70%) |
